Assay results from ChEMBL document CHEMBL5608163, “Structure modification of anoplin for fighting resistant bacteria” (Eur J Med Chem, 2024).
≈ marks a conversion by molar mass, not a printed value. Square brackets hold non-standard residues; d marks the D form. Peptide text beside a SMILES is read from it. NMeR = CN[C@@H](CCCNC(=N)N)C(=O)O; NMeI = CC[C@H](C)[C@H](NC)C(=O)O; NMeL = CN[C@@H](CC(C)C)C(=O)O; NMeK = CN[C@@H](CCCCN)C(=O)O

How the values were obtained:
Staphylococcus aureus [1] = assay: Antibacterial activity against methicillin-resistant Staphylococcus aureus ATCC 33591 assessed as reduction in bacterial growth incubated for 18 hrs by agar dilution method; assay type: functional
Enterococcus faecium = assay: Antibacterial activity against vancomycin resistant Enterococcus faecium ATCC 700221 assessed as inhibition of bacterial growth incubated for 48 hrs by CLSI-based broth microdilution assay; assay type: functional
[2] = Hemolytic activity in human RBC assessed as hemolysis measured after 24 hrs; assay type: toxicity, cell-based, Erythrocyte; conditions: red blood cells
Bacillus subtilis = assay: Antimicrobial activity against Bacillus subtilis ATCC 23857 assessed as reduction in microbial growth incubated for 18 hrs by Mueller-Hinton Broth based microdilution assay; assay type: functional
Klebsiella pneumoniae = assay: Antimicrobial activity against Klebsiella pneumoniae ATCC 700603 assessed as reduction in microbial growth incubated for 18 hrs by Mueller-Hinton Broth based microdilution assay; assay type: functional
Pseudomonas aeruginosa = assay: Antimicrobial activity against Pseudomonas aeruginosa ATCC 27853 assessed as reduction in microbial growth incubated for 18 hrs by Mueller-Hinton Broth based microdilution assay; assay type: functional
Staphylococcus aureus [3] = assay: Antibacterial activity against Staphylococcus aureus ATCC 25923 assessed as reduction in bacterial growth incubated for 18 hrs by Mueller-Hinton Broth based microdilution assay; assay type: functional
Escherichia coli = assay: Antibacterial activity against Escherichia coli ATCC 25922 assessed as reduction in bacterial growth incubated for 18 hrs by Mueller-Hinton Broth based microdilution assay; assay type: functional

MIC (Bacillus subtilis) [µM] | MIC (Klebsiella pneumoniae) [µM] | MIC (Pseudomonas aeruginosa) [µM] | MIC (Staphylococcus aureus [3]) [µM] | MIC (Escherichia coli) [µM] | SMILES | MIC (Staphylococcus aureus [1]) [µM] | MIC (Enterococcus faecium) [µM] | HC50 at 24 h [2] [µM]
 |  |  |  |  | CC[C@H](C)[C@H](NC(=O)[C@H](CCCCN)NC(=O)[C@H](CCCCN)NC(=O)[C@H](CC(C)C)NC(=O)[C@H](CC(C)C)NC(=O)CN)C(=O)N[C@@H](CCCCN)C(=O)N[C@@H](Cc1c[nH]c2ccccc12)C(=O)N[C@@H](CC(C)C)C(=O)N[C@@H](CC(C)C)C(N)=O (H-GLLKKIKWLL-NH2) | 28.4 (≈ 34.4 µg/mL) | 22.1 (≈ 26.8 µg/mL) | 152
64 | > 128 | 32 | > 128 | > 128 | CC[C@H](C)[C@H](NC(=O)[C@H](CCCNC(=N)N)NC(=O)[C@H](CCCCN)NC(=O)[C@H](CC(C)C)NC(=O)[C@H](CC(C)C)NC(=O)CN)C(=O)N[C@@H](CCCCN)C(=O)N[C@H](C(=O)N[C@@H](CC(C)C)C(=O)N(C)[C@@H](CC(C)C)C(N)=O)[C@@H](C)O (H-GLLKRIKTL[NMeL]-NH2) |  |  | 
128 | > 128 | 28 | > 128 | > 128 | CC[C@H](C)[C@H](NC(=O)[C@H](CCCNC(=N)N)NC(=O)[C@H](CCCCN)NC(=O)[C@H](CC(C)C)NC(=O)[C@H](CC(C)C)NC(=O)CN)C(=O)N[C@@H](CCCCN)C(=O)N[C@H](C(=O)N(C)[C@@H](CC(C)C)C(=O)N[C@@H](CC(C)C)C(N)=O)[C@@H](C)O (H-GLLKRIKT[NMeL]L-NH2) |  |  | 
128 | > 128 | 128 | > 128 | > 128 | CC[C@H](C)[C@H](NC(=O)[C@H](CCCNC(=N)N)NC(=O)[C@H](CCCCN)NC(=O)[C@H](CC(C)C)NC(=O)[C@H](CC(C)C)NC(=O)CN)C(=O)N(C)[C@@H](CCCCN)C(=O)N[C@H](C(=O)N[C@@H](CC(C)C)C(=O)N[C@@H](CC(C)C)C(N)=O)[C@@H](C)O (H-GLLKRI[NMeK]TLL-NH2) |  |  | 
128 | > 128 | > 128 | > 128 | > 128 | CC[C@H](C)[C@@H](C(=O)N[C@@H](CCCCN)C(=O)N[C@H](C(=O)N[C@@H](CC(C)C)C(=O)N[C@@H](CC(C)C)C(N)=O)[C@@H](C)O)N(C)C(=O)[C@H](CCCNC(=N)N)NC(=O)[C@H](CCCCN)NC(=O)[C@H](CC(C)C)NC(=O)[C@H](CC(C)C)NC(=O)CN (H-GLLKR[NMeI]KTLL-NH2) |  |  | 
128 | > 128 | 128 | > 128 | > 128 | CC[C@H](C)[C@H](NC(=O)[C@H](CCCNC(=N)N)N(C)C(=O)[C@H](CCCCN)NC(=O)[C@H](CC(C)C)NC(=O)[C@H](CC(C)C)NC(=O)CN)C(=O)N[C@@H](CCCCN)C(=O)N[C@H](C(=O)N[C@@H](CC(C)C)C(=O)N[C@@H](CC(C)C)C(N)=O)[C@@H](C)O (H-GLLK[NMeR]IKTLL-NH2) |  |  | 
128 | > 128 | 64 | > 128 | > 128 | CC[C@H](C)[C@H](NC(=O)[C@H](CCCNC(=N)N)NC(=O)[C@H](CCCCN)N(C)C(=O)[C@H](CC(C)C)NC(=O)[C@H](CC(C)C)NC(=O)CN)C(=O)N[C@@H](CCCCN)C(=O)N[C@H](C(=O)N[C@@H](CC(C)C)C(=O)N[C@@H](CC(C)C)C(N)=O)[C@@H](C)O (H-GLL[NMeK]RIKTLL-NH2) |  |  | 
> 128 | > 128 | 128 | > 128 | > 128 | CC[C@H](C)[C@H](NC(=O)[C@H](CCCNC(=N)N)NC(=O)[C@H](CCCCN)N(C)C(=O)[C@H](CC(C)C)NC(=O)[C@H](CC(C)C)NC(=O)CN)C(=O)N(C)[C@@H](CCCCN)C(=O)N[C@H](C(=O)N[C@@H](CC(C)C)C(=O)N[C@@H](CC(C)C)C(N)=O)[C@@H](C)O (H-GLL[NMeK]RI[NMeK]TLL-NH2) |  |  | 
